Consider one compound from paper PMC5754413, “Mass balance, metabolic disposition, and pharmacokinetics of a single oral dose of regorafenib in healthy human subjects” (Cancer Chemotherapy and Pharmacology, 2017).

The nature of series [1]: Total radioactivity in plasma and whole blood (LSC) after a single oral dose of [14C]regorafenib. The series is classed as in vivo, human. The following applies: for C max of total radioactivity: geometric mean (%CV), N = 4. Here is the method: Subjects were screened within the 28 days before scheduled drug administration and entered the clinical unit 1 day before drug administration. After an overnight fasting, subjects received a single oral 120 mg dose of regorafenib, containing approximately 100 μCi (3.7 MBq) [^14C]regorafenib, as a 6 mL solution in an aqueous PEG-based vehicle (Diluent Sol 30 mL oral, Bayer HealthCare AG) followed by 240 mL water. The associated radiation exposure fell within International Commission on Radiological Protection Guidelines for Category IIa studies (0.1–1 mSv).
(§1) Blood and plasma: Blood samples (18.7 mL per each time point) were collected into nonbeaded lithium-heparinized tubes immediately pre-dose and at the following post-dose times: 0.5, 1, 1.5, 2, 2.5, 3, 4, 6, 9, 12, 16, 20, 24, 36, 48, 72, 96, 120, 144, 192, 240, and 288 h. For each sample, 1 mL of whole blood was stored at 4 °C for subsequent LSC and the remainder was processed for plasma. Individual 150 μL plasma samples for each time point were treated with formic acid (20 μL) and acetonitrile (450 μL). The samples were homogenized using a MS2 Minishaker® (IKA® Labortechnik, Staufen im Breisgau, Germany). The precipitated proteins were removed by centrifugation (5 min, 13,000 rpm, Biofuge). After concentrating the supernatant to about 80 μL, methanol (15 μL) was added. The individual samples were analyzed by HPLC with off-line radioactivity detection for metabolite profiling.
(§2) Liquid samples: Duplicate aliquots of liquid samples were diluted with 1 mL distilled water, if necessary, and mixed with 10 mL Aquasafe 500 Plus scintillation fluid. Levels of radioactivity were measured by LSC (PerkinElmer 2100) with automatic quench correction by an external standard channel ratio method at 13 °C using Ultima Gold™ as the liquid scintillation cocktail. Lower limits of detection (LLOD) were 30 μg-Eq/L for plasma (sample volume 0.5 mL), 50 μg-Eq/L for whole blood (sample volume 0.3 mL), and 0.016 μg-Eq/g for urine (sample weight 1 g).
Pharmacokinetic outcome measures were generated by non-compartmental analysis of plasma concentration–time data using WinNonlin v4.1 (Pharsight Corporation) in conjunction with Kincalc v2.50 (Bayer AG). […] The metabolite or regorafenib percentages were calculated by AUC(0–144)metabolite or regorafenib divided by AUC(0–144)radioactivity calculated from data obtained by HPLC–LSC analysis. Secondary outcomes were: time to C max (t max); apparent terminal elimination half-life (t ½); apparent volume of distribution during the terminal phase after extravascular administration (Vz/F); and total body clearance of drug calculated after extravascular administration (e.g., apparent oral clearance) (CL/F). AUC was estimated by the sum of partial areas: partial areas were calculated using the linear (if C i ≤ C i+1) or the logarithmic (if C i > C i+1) trapezoidal rules. The quality of the half-life calculation was assessed based on graphs showing the concentration–time profile. […] The extrapolated portion of the AUC from the last measured data point C(t n) to infinity was calculated using the concentration C last,calc, which was calculated from the log-linear regression line used for half-life calculation rather than C(t n). In addition, appropriate pharmacokinetic parameters were derived from the total radioactivity-versus-time data in blood and plasma.

Series [2] can be described thus: Metabolite profiling in plasma by HPLC–LSC. Type of series: in vivo, human. The procedure: as §1
Pharmacokinetic outcome measures were generated by non-compartmental analysis of plasma concentration–time data using WinNonlin v4.1 (Pharsight Corporation) in conjunction with Kincalc v2.50 (Bayer AG). For individual subjects, primary outcome measures were maximum observed concentration (C max) and area under the concentration–time curve from time zero to infinity (AUC). […] The metabolite or regorafenib percentages were calculated by AUC(0–144)metabolite or regorafenib divided by AUC(0–144)radioactivity calculated from data obtained by HPLC–LSC analysis. Secondary outcomes were: time to C max (t max); apparent terminal elimination half-life (t ½); apparent volume of distribution during the terminal phase after extravascular administration (Vz/F); and total body clearance of drug calculated after extravascular administration (e.g., apparent oral clearance) (CL/F). AUC was estimated by the sum of partial areas: partial areas were calculated using the linear (if C i ≤ C i+1) or the logarithmic (if C i > C i+1) trapezoidal rules. The quality of the half-life calculation was assessed based on graphs showing the concentration–time profile. For reliable calculation of the half-life, at least three data points (concentration/time values) were used. The extrapolated portion of the AUC from the last measured data point C(t n) to infinity was calculated using the concentration C last,calc, which was calculated from the log-linear regression line used for half-life calculation rather than C(t n). In addition, appropriate pharmacokinetic parameters were derived from the total radioactivity-versus-time data in blood and plasma.
(§3) Due to the limited amount of radiocarbon associated with many of the samples, analyses were conducted using HPLC with fraction collection followed by off-line LSC. Samples were analyzed on a 150 × 3 mm Prodigy® ODS-3 100A, 3 µm column (Phenomenex, Aschaffenburg, Germany) protected by 8 × 3 mm Nucleosil® 100-3 C18 HD guard columns (Macherey–Nagel, Düren, Germany). Metabolites were separated with a gradient of aqueous potassium dihydrogen phosphate (1 g/L, pH 2.0, mobile phase A) versus acetonitrile (mobile phase B) at a flow rate of 0.5 mL/min (gradient: 0% B at 0 min, linear to 50% B at 10 min, linear to 60% B at 25 min, linear to 80% B at 26 min, plateau at 80% B to 30 min). The radiochemical profile of [^14C]regorafenib-derived radioactivity was determined for all urine samples, plasma extracts, and fecal homogenate extracts. Here, HPLC fractionation into 96-well plates was followed by off-line LSC (Wallac 1450 MicroBeta liquid scintillation analyzer) after adding 150 μL of scintillation cocktail to each well (Ultima-Flo™ AP, PerkinElmer; sampling rate: 10 s/well) using the Wallac 1450 Microbeta™ Plusliquid detector. Reconstructed radiochemical profiles were compiled from the resulting data.

Series [3] in a line: Mass balance: urinary and fecal excretion of radioactivity and metabolite pattern in excreta. The series is classed as in vivo, human. The procedure:
Urine: Urine samples were collected at 12-h intervals post-dose on Day 1 and then at 24-h intervals until 288 h post-dose. Urine was stored at 4 °C until it was divided into aliquots for LSC and subsequent metabolite profiling (aliquots were stored at − 20 °C).
Feces: Fecal samples were collected and homogenized in water on a daily basis until 12 days post-dose. Duplicate aliquots of the homogenates were taken for combustion with oxygen (in preparation for LSC), and separate aliquots were used for metabolite profiling.
as §2
Fecal samples: Duplicate aliquots of fecal homogenate (about 0.3 g) were weighed into Combustocones® containing Combustopads® for combustion analysis. Samples were combusted using a Packard Tri-Carb 307 Automatic Sample Oxidizer. The resultant ^14CO2 generated was collected by absorption in Carbo-Sorb (8 mL) to which Permafluor E+ (10 mL) was added. Radioactivity was quantified using a liquid scintillation analyzer (PerkinElmer 2100), with automatic quench correction using an external standard method as urine sample analysis. Samples were allowed to stabilize with respect to heat and light, and each sample was analyzed for 5 min. Prior to calculation of individual results, a background count rate was determined and subtracted from each sample’s count rate. LOD was 0.05 μg-Eq/g (sample weight 0.3 g).
as §3

In series [4] the test system is human feces. The series is described as follows: Incubation with human feces under anaerobic conditions. Type of series: in vitro ADME. The following applies: anaerobic conditions, ex vivo. The procedure:
Under anaerobic conditions, a suspension of fresh human feces (about 0.5 g) in degassed water (final volume 5 mL) was treated with a solution of [^14C]-labelled metabolite M-2 or metabolite M-7 (1 mg/mL acetonitrile; final concentration: 10 μM). After incubation for 24 h at 37 °C, the incubation mixture was terminated by the addition of acetonitrile (2 mL). After centrifugation (5 min, 3000 rpm), the supernatant (25 μL) was directly subjected to HPLC with the respective off-line radioactivity detection. As negative controls, metabolites M-2 and M-7 were incubated in water for 24 h at 37 °C.

Setting [5] is: range between subjects, percent of administered dose.

Take `CNC(=O)c1cc(Oc2ccc(NC(=O)Nc3ccc(Cl)c(C(F)(F)F)c3)c(F)c2)ccn1` [Regorafenib, 4-[4-({[4-chloro-3-(trifluoromethyl)phenyl]carbamoyl}amino)-3-fluorophenoxy]-N-methylpyridine-2-carboxamide]: the “Estimated half-lives of total radioactivity, range between subjects” value in series [1] (in vivo) was 34 to 42 h. Also, the “C max of total radioactivity” value in series [1] (plasma) stood at 2.90 mg-Eq/L. For the same compound, in series [1] (total radioactivity), the “% of AUC(144–inf), extrapolated portion” value is “% of AUC(144–inf): total (2.6%), extrapolated portion”. Also, the “Binding of regorafenib-derived radioactivity to red blood cells” value in series [1] (whole blood versus plasma radioactivity) is given as “does not bind substantially to red blood cells”. Further, in series [1] (whole blood), the “C max of total radioactivity” value is 1.95 mg-Eq/L. Also, the “Percent of total AUC(0–144) of radioactivity in plasma” value in series [2] (based on HPLC–LSC, mean) is reported as 57.4%. Besides, the “Mean total exposure, AUC(0–144 h)” value in series [2] (plasma, HPLC–LSC) turned out to be 46.89 mg-Eq·h/L. Further, in series [3] (in vivo), the “Dose renally excreted after 96 h” value was “less than 3%”. Further, the “Cumulative renal excretion by 96 h” value in series [3] (mean, percent of dose) is given as 16.6%. In addition, in series [3] (mean, total radioactivity), the “Excretion in feces within 8 days” value is given as 67.7% and the “Excretion in feces within the first 4 days” value turned out to be 46.3%. Also, in series [3] (setting [5]), the “Radioactivity eliminated in feces, range” value is listed as 68.3–76.3% and the “Radioactivity excreted via urine, range” value is listed as 16.2–24.7%. In addition, in series [4], the “Stability in feces / toward gut flora” value was “stable”.
